In article PMC11448502, “Cryo-EM structures of the human P2X1 receptor reveal subtype-specific architecture and antagonism by supramolecular ligand-binding” (Nature Communications, 2024):
Numbering of substitutions follows the chain as printed. Several values for one entry are separate records, joined by “and”; a condition that tells them apart may be missing. Identical values can stand only once. Entries after “also recorded” stand apart in the source; their conditions may differ.

How the values were obtained:
P2X1 = system: P2X1; design: method as in doi: 10.1111/bph.15299; conditions: reviewer comment, ref doi: 10.1111/bph.15299, read-out: EC50 of ATP; cited from earlier work
hP2X1 K140A = target: T1, hP2X1 K140A (Homo sapiens, UniProt P51575, K140A); test: ATP dose response (EC50), TEVC in oocytes; assay type: cell-based; conditions: for Normalized Current: hP2X1 K140A
T1 construct: hP2X1 mRNA that was made from linearized full-length wild-type or mutant pcDNA 3.1x; expressed in transfected cells; host or cells: Xenopus laevis oocytes (mRNA injection)
T1 sequence (P51575 1-399 K140A): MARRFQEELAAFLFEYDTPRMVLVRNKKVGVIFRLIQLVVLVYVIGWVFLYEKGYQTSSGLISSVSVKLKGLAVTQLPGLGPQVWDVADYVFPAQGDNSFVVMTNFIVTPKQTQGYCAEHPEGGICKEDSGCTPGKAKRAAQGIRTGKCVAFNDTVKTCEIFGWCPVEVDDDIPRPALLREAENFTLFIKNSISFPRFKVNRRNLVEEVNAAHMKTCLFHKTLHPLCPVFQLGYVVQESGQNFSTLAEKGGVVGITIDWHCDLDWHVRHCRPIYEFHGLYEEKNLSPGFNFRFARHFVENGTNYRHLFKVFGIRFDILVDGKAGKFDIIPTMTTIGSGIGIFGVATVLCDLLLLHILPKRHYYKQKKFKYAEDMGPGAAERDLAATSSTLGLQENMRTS
Procedure: (§1) Oocytes were purchased defolliculated from Ecocyte Bioscience in Barth’s Solution (88 mM NaCl, 1 mM KCl, 0.82 mM MgSO4, 0.33 mM Ca(NO3)2, 0.41 mM CaCl2, 2.4 mM NaHCO3, 5 mM Tris-HCl) supplemented with penicillin (100 U/mL) and streptomycin (100 µg/mL). Xenopus laevis oocytes were then injected with 50 nL of 100 ng/μL hP2X1 mRNA that was made from linearized full-length wild-type or mutant pcDNA 3.1x according to the protocol provided in the mMessage mMachine kit (Invitrogen). Injected oocytes were allowed to express for ~20 hours at 18 °C before recording was performed.
(§2) Data acquisition was performed using the Oocyte Clamp OC-725C amplifier and pClamp 8.2 software. Buffers were applied using a gravity fed RSC-200 Rapid Solution Changer that flows at ~5 mL/min. All experiments use Sutter filamented glass 10 cm in length with an inner diameter of 0.69 mm and an outer diameter of 1.2 mm to impale oocytes and clamp the holding voltage at −60 mV. Experiments were recorded in buffer containing 10 mM HEPES (pH 7.4), 140 mM NaCl, 5 mM KCl, 2 mM CaCl2, 2 mM MgCl2, and 10 mM glucose.
(§3) Excitatory responses to a dilution series of ATP between 6.4 nM and 10 mM were examined across the different mutants. Each evoked response was normalized to an initial ATP-induced current evoked by the following concentrations: 500 µM ATP for R292A, 2 mM ATP for K309A, and 100 µM ATP for the remaining mutants and wild-type receptor. The data was fit in Prism 9 using the nonlinear regression named “EC50, x is concentration” to afford EC50 values. This value was then averaged amongst each singular condition and reported as an average plus or minus the standard deviation.

hP2X1 D170A = target: T2, hP2X1 D170A (Homo sapiens, UniProt P51575, D170A); test: ATP dose response (EC50), TEVC in oocytes; assay type: cell-based; conditions: for Normalized Current: hP2X1 D170A
T2 construct: hP2X1 mRNA that was made from linearized full-length wild-type or mutant pcDNA 3.1x; expressed in transfected cells; host or cells: Xenopus laevis oocytes (mRNA injection)
T2 sequence (P51575 1-399 D170A): T1 sequence (P51575 1-399 K140A) with A140K, D170A
Procedure: as §1, §2, §3

hP2X1 R292A = target: T3, hP2X1 R292A (Homo sapiens, UniProt P51575, R292A); test: ATP dose response (EC50), TEVC in oocytes; assay type: cell-based
T3 construct: hP2X1 mRNA that was made from linearized full-length wild-type or mutant pcDNA 3.1x; expressed in transfected cells; host or cells: Xenopus laevis oocytes (mRNA injection)
T3 sequence (P51575 1-399 R292A): T1 sequence (P51575 1-399 K140A) with A140K, R292A
Procedure: as §1, §2, §3

hP2X1 R139A = target: T4, hP2X1 R139A (Homo sapiens, UniProt P51575, R139A); test: ATP dose response (EC50), TEVC in oocytes; assay type: cell-based
T4 construct: hP2X1 mRNA that was made from linearized full-length wild-type or mutant pcDNA 3.1x; expressed in transfected cells; host or cells: Xenopus laevis oocytes (mRNA injection)
T4 sequence (P51575 1-399 R139A): T1 sequence (P51575 1-399 K140A) with R139A, A140K
Procedure: as §1, §2, §3

Normalized Current (hP2X1 K140A; [ATP] 1.000E-04 M): 1.047 and 0.9489 and 0.9169
Normalized Current (hP2X1 K140A; [ATP] 4.000E-06 M): 0.661 and 0.6317 and 0.5508
Normalized Current (hP2X1 K140A; [ATP] 5.000E-04 M): 1.045 and 0.9875 and 0.9677
Normalized Current (hP2X1 D170A; [ATP] 1.000E-04 M): 0.9915 and 0.8795 and 0.8416
Normalized Current (hP2X1 D170A; [ATP] 2.000E-05 M): 0.8809 and 0.7486 and 0.74
Normalized Current (hP2X1 D170A; [ATP] 3.200E-08 M): 0.000000
Normalized Current (hP2X1 D170A; [ATP] 4.000E-06 M): 0.723 and 0.5398 and 0.4488
Normalized Current (hP2X1 D170A; [ATP] 5.000E-04 M): 1.029 and 1.009 and 0.9611
EC50 of ATP (hP2X1 R292A; TEVC): impacted
Normalized Current (hP2X1 R292A; [ATP] 1.000E-04 M): 0.772 and 0.7521 and 0.7236
Normalized Current (hP2X1 R292A; [ATP] 1.600E-07 M): 0.000000
Normalized Current (hP2X1 R292A; [ATP] 2.000E-05 M): 0.2643 and 0.1768 and 0.1722
Normalized Current (hP2X1 R292A; [ATP] 2.500E-03 M): 1.04 and 1.022 and 0.9381
Normalized Current (hP2X1 R292A; [ATP] 5.000E-04 M): 0.9697 and 0.8815 and 0.878
Normalized Current (hP2X1 R139A; [ATP] 1.000E-04 M): 0.9464 and 0.9017 and 0.9178
Normalized Current (hP2X1 R139A; [ATP] 2.000E-05 M): 0.8825 and 0.6805 and 0.736
Normalized Current (hP2X1 R139A; [ATP] 4.000E-06 M): 0.6603 and 0.5057 and 0.6077
Normalized Current (hP2X1 R139A; [ATP] 5.000E-04 M): 1.062 and 0.93 and 1.008
SMILES: Nc1ncnc2c1ncn2[C@@H]1O[C@H](COP(=O)(O)OP(=O)(O)OP(=O)(O)O)[C@@H](O)[C@H]1O [ATP]
EC50 (P2X1): 500 to 1000 nM
apparent affinity (EC50) of ATP, effect of mutation (hP2X1 K140A; hP2X1 K140A vs wild-type, TEVC): do not appear to significantly change; also recorded: no major effect; also recorded: did not impact
apparent affinity (EC50) of ATP, effect of mutation (hP2X1 D170A; hP2X1 D170A vs wild-type, TEVC): do not appear to significantly change; also recorded: no major effect; also recorded: does not significantly impact
EC50 of ATP (hP2X1 R139A; TEVC): no effect; also recorded: without affecting
